Measured values as given in ChEMBL document CHEMBL5291721, “A preclinical secondary pharmacology resource illuminates target-adverse drug reaction associations of marketed drugs” (Nat Commun, 2023).

How the values were obtained:
Progesterone receptor = biological target: T1, Progesterone receptor (Homo sapiens, UniProt P06401); format: functional
T1 sequence (P06401 whole entry): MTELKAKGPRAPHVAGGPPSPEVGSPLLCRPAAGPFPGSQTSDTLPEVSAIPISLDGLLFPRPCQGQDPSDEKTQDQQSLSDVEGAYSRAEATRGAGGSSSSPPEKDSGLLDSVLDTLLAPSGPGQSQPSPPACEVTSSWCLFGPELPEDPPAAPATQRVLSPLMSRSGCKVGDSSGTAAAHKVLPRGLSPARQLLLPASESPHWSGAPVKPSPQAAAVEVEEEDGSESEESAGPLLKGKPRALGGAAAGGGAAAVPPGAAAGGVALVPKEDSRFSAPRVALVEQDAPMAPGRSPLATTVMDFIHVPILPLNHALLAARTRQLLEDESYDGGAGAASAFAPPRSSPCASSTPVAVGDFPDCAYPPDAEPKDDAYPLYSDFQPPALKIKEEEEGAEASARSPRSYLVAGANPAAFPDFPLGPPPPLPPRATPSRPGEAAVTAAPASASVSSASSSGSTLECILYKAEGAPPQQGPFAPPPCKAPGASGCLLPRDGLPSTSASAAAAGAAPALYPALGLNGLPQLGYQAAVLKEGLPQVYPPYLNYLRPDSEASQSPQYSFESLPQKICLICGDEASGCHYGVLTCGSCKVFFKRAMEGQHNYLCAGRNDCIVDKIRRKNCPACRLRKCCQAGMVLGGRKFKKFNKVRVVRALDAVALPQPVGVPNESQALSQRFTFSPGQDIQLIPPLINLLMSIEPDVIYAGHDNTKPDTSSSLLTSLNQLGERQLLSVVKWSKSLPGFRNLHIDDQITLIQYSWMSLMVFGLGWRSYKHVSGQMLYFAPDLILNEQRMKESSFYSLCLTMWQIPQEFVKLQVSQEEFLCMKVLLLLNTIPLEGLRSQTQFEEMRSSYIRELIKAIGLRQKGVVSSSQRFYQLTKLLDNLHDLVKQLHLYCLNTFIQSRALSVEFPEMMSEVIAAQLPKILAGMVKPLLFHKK

[1] = biological target: Neurotensin receptor type 1 (Homo sapiens, UniProt P30989)
Substance-P receptor = Substance-P receptor (Homo sapiens, UniProt P25103)
Chain of Substance-P receptor (P25103 whole entry): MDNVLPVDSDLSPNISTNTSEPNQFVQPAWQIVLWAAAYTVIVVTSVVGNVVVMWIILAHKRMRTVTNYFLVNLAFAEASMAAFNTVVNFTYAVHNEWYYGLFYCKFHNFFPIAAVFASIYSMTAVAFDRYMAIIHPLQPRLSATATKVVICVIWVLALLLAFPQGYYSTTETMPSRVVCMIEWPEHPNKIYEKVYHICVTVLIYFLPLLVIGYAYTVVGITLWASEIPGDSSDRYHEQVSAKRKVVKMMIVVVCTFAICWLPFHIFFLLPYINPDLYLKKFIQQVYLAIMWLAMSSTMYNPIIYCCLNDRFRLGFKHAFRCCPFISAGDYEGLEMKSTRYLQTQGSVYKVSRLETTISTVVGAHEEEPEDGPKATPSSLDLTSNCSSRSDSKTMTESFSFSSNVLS

Cannabinoid receptor 1 = Cannabinoid receptor 1 (Homo sapiens, UniProt P21554)
Chain of Cannabinoid receptor 1 (P21554 whole entry): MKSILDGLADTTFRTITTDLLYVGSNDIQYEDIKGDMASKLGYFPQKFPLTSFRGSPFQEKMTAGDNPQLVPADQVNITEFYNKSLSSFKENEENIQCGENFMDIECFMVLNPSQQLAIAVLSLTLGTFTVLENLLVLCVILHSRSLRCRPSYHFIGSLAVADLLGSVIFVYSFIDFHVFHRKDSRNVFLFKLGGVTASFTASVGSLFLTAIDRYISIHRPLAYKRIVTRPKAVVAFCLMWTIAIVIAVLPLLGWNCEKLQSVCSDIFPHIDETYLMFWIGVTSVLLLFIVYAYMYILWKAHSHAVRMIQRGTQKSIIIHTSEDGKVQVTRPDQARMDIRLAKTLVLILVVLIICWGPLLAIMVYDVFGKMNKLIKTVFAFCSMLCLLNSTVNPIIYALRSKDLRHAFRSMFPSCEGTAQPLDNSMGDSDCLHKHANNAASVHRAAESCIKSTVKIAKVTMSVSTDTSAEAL

[2] = biological target: T2, 5-hydroxytryptamine receptor 1A (Homo sapiens, UniProt P08908)
T2 sequence (P08908 whole entry): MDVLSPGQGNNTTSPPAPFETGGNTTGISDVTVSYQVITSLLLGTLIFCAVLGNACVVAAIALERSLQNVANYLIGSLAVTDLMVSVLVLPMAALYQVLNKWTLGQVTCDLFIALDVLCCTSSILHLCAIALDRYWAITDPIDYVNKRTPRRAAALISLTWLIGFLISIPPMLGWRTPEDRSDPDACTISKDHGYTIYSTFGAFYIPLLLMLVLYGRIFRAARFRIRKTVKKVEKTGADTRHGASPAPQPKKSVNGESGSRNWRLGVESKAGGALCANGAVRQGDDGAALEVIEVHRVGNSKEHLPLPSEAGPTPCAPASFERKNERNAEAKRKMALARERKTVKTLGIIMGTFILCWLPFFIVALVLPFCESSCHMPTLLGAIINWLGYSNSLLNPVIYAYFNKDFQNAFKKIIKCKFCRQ

[3] = biological target: Beta-2 adrenergic receptor (Homo sapiens, UniProt P07550)
[4] = biological target: T3, Alpha-2A adrenergic receptor (Homo sapiens, UniProt P08913)
T3 sequence (P08913 whole entry): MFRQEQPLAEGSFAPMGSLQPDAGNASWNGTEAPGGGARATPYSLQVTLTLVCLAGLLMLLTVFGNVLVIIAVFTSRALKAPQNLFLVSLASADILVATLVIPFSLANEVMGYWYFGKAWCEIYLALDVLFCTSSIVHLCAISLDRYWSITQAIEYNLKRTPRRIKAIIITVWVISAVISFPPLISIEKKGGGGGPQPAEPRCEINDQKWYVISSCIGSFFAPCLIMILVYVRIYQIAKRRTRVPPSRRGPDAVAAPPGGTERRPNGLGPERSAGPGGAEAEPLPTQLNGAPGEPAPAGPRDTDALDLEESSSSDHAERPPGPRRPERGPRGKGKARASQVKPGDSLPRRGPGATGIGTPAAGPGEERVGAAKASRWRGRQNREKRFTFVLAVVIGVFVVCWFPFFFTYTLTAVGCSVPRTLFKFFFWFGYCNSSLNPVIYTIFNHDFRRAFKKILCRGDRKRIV

[5] = biological target: T4, Muscarinic acetylcholine receptor M1 (Homo sapiens, UniProt P11229); format: functional, cell-based
T4 sequence (P11229 whole entry): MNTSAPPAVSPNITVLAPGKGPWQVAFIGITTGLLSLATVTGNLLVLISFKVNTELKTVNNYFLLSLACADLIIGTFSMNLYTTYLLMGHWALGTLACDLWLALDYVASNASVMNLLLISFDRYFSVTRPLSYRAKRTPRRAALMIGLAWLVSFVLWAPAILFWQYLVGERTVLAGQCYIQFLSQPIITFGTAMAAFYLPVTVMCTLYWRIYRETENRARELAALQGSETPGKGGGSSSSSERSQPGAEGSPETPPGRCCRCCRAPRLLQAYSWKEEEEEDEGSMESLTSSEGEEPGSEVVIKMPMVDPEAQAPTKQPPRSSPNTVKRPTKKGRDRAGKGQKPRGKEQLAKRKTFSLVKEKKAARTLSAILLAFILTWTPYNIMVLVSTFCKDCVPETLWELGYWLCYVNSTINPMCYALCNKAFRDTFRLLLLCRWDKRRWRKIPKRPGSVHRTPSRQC

D(1A) dopamine receptor = D(1A) dopamine receptor (Homo sapiens, UniProt P21728)
Mu-type opioid receptor = Mu-type opioid receptor (Homo sapiens, UniProt P35372)
Chain of Mu-type opioid receptor (P35372 whole entry): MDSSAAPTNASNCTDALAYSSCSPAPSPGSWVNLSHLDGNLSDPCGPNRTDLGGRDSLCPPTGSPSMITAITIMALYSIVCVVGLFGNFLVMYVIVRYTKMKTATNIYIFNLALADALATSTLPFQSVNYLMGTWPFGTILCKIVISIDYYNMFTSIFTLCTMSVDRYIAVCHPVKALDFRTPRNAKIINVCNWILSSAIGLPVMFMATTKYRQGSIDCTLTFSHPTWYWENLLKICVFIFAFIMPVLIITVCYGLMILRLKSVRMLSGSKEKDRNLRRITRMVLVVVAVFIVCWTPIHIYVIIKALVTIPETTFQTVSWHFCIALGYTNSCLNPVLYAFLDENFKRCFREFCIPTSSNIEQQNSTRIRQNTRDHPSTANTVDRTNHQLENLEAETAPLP

Acetylcholinesterase = Acetylcholinesterase (Homo sapiens, UniProt P22303); format: functional
Chain of Acetylcholinesterase (P22303 whole entry): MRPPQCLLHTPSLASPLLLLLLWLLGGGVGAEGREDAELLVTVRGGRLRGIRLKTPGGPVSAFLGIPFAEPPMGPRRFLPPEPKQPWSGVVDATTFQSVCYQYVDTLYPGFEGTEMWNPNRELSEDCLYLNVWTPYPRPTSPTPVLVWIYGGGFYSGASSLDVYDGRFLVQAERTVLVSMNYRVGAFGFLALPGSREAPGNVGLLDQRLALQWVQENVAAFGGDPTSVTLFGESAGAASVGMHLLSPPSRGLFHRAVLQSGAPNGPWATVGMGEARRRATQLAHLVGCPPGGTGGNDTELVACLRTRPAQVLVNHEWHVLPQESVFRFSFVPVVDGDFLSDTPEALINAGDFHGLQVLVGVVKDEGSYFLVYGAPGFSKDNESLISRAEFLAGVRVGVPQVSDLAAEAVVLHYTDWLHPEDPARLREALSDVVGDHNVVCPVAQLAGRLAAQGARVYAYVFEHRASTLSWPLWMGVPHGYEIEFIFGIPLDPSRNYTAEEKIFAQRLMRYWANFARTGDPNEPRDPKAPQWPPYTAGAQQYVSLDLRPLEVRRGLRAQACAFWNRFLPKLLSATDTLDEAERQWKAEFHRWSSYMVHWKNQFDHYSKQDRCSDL

[6] = biological target: 3',5'-cyclic-AMP phosphodiesterase 4A (Homo sapiens, UniProt P27815); format: functional
Chain of 3',5'-cyclic-AMP phosphodiesterase 4A (P27815 whole entry): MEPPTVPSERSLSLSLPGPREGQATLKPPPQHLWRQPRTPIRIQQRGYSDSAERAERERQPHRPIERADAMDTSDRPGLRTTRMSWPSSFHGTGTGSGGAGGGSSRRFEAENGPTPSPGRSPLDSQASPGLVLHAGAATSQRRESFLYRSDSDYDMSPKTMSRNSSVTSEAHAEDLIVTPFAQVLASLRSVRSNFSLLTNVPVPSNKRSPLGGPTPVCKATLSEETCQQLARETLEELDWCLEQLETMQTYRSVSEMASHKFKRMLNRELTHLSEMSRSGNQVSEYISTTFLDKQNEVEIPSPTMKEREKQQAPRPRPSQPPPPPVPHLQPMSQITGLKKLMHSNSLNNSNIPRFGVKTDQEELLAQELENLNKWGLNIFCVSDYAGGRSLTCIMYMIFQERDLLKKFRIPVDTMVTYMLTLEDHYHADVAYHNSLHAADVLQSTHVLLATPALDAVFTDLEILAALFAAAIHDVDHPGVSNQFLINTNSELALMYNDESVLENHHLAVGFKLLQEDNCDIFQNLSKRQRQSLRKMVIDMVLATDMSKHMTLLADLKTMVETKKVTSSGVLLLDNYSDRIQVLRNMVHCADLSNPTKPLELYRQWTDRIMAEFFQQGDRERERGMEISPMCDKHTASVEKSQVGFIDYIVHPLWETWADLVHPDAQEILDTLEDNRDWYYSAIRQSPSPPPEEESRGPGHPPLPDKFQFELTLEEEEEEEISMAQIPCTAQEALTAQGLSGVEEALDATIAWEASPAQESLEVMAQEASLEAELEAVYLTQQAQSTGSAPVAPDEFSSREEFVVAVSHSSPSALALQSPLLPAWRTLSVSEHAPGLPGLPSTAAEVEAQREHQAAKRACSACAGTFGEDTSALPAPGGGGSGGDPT

[7] = biological target: Sodium-dependent noradrenaline transporter (Homo sapiens, UniProt P23975)
Chain of Sodium-dependent noradrenaline transporter (P23975 whole entry): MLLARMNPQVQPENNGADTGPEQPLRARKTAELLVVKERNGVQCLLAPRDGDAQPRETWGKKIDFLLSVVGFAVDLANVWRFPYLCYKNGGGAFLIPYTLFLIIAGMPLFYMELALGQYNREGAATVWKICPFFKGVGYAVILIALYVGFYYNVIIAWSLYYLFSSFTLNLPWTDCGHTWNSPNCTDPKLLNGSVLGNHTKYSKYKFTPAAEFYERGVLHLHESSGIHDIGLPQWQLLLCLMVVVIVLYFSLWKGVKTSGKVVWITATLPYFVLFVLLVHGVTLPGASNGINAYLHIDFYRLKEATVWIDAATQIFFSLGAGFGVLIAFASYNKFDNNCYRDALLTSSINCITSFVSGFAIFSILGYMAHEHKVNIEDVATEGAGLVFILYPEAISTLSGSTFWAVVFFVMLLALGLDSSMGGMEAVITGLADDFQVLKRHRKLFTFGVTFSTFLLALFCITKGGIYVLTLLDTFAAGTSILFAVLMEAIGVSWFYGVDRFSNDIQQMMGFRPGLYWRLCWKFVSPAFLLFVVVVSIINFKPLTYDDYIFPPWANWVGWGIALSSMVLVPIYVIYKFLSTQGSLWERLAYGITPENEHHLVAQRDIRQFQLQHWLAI

[8] = biological target: Sodium-dependent serotonin transporter (Homo sapiens, UniProt P31645)
D(3) dopamine receptor = D(3) dopamine receptor (Homo sapiens, UniProt P35462)
[9] = biological target: Vascular endothelial growth factor receptor 2 (Homo sapiens, UniProt P35968); format: functional
Chain of Vascular endothelial growth factor receptor 2 (P35968 whole entry): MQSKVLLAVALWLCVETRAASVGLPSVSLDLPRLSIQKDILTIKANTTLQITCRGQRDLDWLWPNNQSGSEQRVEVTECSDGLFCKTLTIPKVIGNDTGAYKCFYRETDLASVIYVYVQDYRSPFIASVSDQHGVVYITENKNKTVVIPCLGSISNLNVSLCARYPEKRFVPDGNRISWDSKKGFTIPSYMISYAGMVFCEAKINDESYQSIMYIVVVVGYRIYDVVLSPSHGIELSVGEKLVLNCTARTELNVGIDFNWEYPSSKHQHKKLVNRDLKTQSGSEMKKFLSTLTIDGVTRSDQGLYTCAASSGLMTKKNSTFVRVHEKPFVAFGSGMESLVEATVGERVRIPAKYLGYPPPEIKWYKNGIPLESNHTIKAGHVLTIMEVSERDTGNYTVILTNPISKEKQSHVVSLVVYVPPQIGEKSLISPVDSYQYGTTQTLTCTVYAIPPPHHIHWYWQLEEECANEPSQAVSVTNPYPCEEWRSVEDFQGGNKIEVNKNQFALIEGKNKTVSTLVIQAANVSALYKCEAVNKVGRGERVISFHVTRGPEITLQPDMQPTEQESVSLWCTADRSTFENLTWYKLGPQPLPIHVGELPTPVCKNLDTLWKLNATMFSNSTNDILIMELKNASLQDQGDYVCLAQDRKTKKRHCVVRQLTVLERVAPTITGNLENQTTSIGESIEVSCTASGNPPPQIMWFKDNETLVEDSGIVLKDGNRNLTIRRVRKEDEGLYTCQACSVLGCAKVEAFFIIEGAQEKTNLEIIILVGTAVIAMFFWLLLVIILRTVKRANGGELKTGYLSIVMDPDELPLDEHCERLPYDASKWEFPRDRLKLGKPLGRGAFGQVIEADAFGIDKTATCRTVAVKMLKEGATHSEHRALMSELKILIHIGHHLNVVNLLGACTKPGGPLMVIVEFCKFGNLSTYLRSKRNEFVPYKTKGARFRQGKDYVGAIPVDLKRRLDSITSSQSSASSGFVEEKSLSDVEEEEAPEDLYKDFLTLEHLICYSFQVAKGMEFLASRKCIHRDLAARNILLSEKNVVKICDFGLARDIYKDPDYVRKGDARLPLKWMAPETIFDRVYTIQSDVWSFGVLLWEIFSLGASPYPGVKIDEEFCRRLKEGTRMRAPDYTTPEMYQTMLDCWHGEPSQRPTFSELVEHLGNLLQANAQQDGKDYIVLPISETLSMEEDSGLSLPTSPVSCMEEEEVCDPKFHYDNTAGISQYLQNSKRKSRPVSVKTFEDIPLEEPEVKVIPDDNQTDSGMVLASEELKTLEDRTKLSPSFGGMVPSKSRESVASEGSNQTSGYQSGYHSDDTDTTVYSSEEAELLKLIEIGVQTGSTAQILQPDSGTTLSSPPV
Also: assay procedure not described here.

SMILES	AC50 (Progesterone receptor) [µM]	AC50 [1] [µM]	AC50 (Substance-P receptor) [µM]	AC50 (Cannabinoid receptor 1) [µM]	AC50 [2] [µM]	AC50 [3] [µM]	AC50 [4] [µM]	AC50 [5] [µM]	AC50 (D(1A) dopamine receptor) [µM]	AC50 (Mu-type opioid receptor) [µM]	AC50 (Acetylcholinesterase) [µM]	AC50 [6] [µM]	AC50 [7] [µM]	AC50 [8] [µM]	AC50 (D(3) dopamine receptor) [µM]	AC50 [9] [µM]
Cn1nnc2c(C(N)=O)ncn2c1=O [TEMOZOLOMIDE]	> 30	> 30	> 10	> 10	> 10	> 10										
Cc1c(C(=O)NN2CCCCC2)nn(-c2ccc(Cl)cc2Cl)c1-c1ccc(Cl)cc1 [RIMONABANT]	> 30	> 30	> 10		> 10	> 10										
CN1C(C(=O)Nc2ccccn2)=C(O)c2sc(Cl)cc2S1(=O)=O [LORNOXICAM]					> 10	> 30										
CC1(C)NC(=O)N(c2ccc([N+](=O)[O-])c(C(F)(F)F)c2)C1=O [NILUTAMIDE]	> 30			> 30		> 30	> 30	> 30	> 30	> 30	> 30	> 30	> 30	> 30	> 30	
COc1ccccc1OCC(O)CN1CCN(CC(=O)Nc2c(C)cccc2C)CC1 (centres undefined) [RANOLAZINE]	> 30			> 30		5.7										
CN(C)/N=N/c1[nH]cnc1C(N)=O [DACARBAZINE]	> 10			> 10		> 10										
CO[C@H]1C[C@@H]2CC[C@@H](C)[C@@](O)(O2)C(=O)C(=O)N2CCCC[C@H]2C(=O)O[C@H]([C@H](C)C[C@@H]2CC[C@@H](O)[C@H](OC)C2)CC(=O)[C@H](C)/C=C(\C)[C@@H](O)[C@@H](OC)C(=O)[C@H](C)C[C@H](C)/C=C/C=C/C=C/1C [SIROLIMUS]		> 30		> 10	> 10	> 10	> 30		> 30	> 30	> 30	> 30	> 30		> 30	> 30
Cc1cn([C@H]2C[C@H](N=[N+]=[N-])[C@@H](CO)O2)c(=O)[nH]c1=O [ZIDOVUDINE]		> 30	> 10		> 10	> 10	> 30		> 30	> 30	> 30	> 30	> 30		> 30	> 30
CCCCN1C[C@H](O)[C@@H](O)[C@H](O)[C@H]1CO	> 30			> 30		> 30										
CC(C)C[C@H]1C(=O)N2CCC[C@H]2[C@]2(O)O[C@](NC(=O)[C@@H]3C=C4c5cccc6[nH]c(Br)c(c56)C[C@H]4N(C)C3)(C(C)C)C(=O)N12 [BROMOCRIPTINE]	> 30	> 30		> 10	0.319	8.4			2.37	3.45	1.78	> 30	> 30			> 30
Cc1cccc(Nc2ccccc2C(=O)O)c1C [MEFENAMIC ACID]	> 10			> 10		> 10	> 30		> 30	> 30	> 30	> 30	> 30		> 30	> 30
CCOC(=O)[C@H](CCc1ccccc1)N[C@@H](C)C(=O)N1[C@H](C(=O)O)C[C@@H]2CCC[C@@H]21		> 30	> 10	> 10	> 10	> 10										

More lines, main results first:

AC50 (Progesterone receptor) [µM]	AC50 [1] [µM]	AC50 (Substance-P receptor) [µM]	AC50 (Cannabinoid receptor 1) [µM]	AC50 [2] [µM]	AC50 [3] [µM]	SMILES	AC50 [4] [µM]	AC50 [5] [µM]	AC50 (D(1A) dopamine receptor) [µM]	AC50 (Mu-type opioid receptor) [µM]	AC50 (Acetylcholinesterase) [µM]	AC50 [6] [µM]	AC50 [7] [µM]	AC50 [8] [µM]	AC50 (D(3) dopamine receptor) [µM]	AC50 [9] [µM]
	> 30	> 10	> 10	> 10	> 10	CC1=C(C(=O)O)N2C(=O)[C@@H](NC(=O)[C@H](N)c3ccccc3)[C@H]2SC1 [CEPHALEXIN ANHYDROUS]										
	> 30	> 10	> 10	> 10	> 10	Clc1ccc2nsnc2c1NC1=NCCN1 [TIZANIDINE]										
	> 30	> 10	> 10	> 10	> 10	Cc1ccc(-c2cc(C(F)(F)F)nn2-c2ccc(S(N)(=O)=O)cc2)cc1 [CELECOXIB]										
> 30	> 30		> 10		> 10	CCCN1C[C@H](CSC)C[C@@H]2c3cccc4[nH]cc(c34)C[C@H]21 [PERGOLIDE]										
	> 30	> 10	> 10	> 10	> 10	CN(C)CCC(c1ccc(Cl)cc1)c1ccccn1 (centres undefined) [CHLORPHENIRAMINE]										
> 30	> 30	1.54	> 30	> 10	> 30	CCC(C)n1ncn(-c2ccc(N3CCN(c4ccc(OCC5COC(Cn6cncn6)(c6ccc(Cl)cc6Cl)O5)cc4)CC3)cc2)c1=O (centres undefined) [ITRACONAZOLE]										
> 10			> 10		> 10	NS(=O)(=O)Cc1noc2ccccc12 [ZONISAMIDE]										
0.45			12.8		> 10	Clc1ccc(C(c2ccccc2Cl)C(Cl)Cl)cc1 (centres undefined) [MITOTANE]										
> 30			20.7		> 30	O=C1Nc2ccc(Cl)cc2[C@@](C#CC2CC2)(C(F)(F)F)O1 [EFAVIRENZ]										
	> 30	> 10	> 10	> 10	> 10	C[C@]12CCC(=O)C=C1CC[C@@H]1[C@@H]2[C@@H](O)C[C@@]2(C)[C@H]1CC[C@]2(O)C(=O)CO [HYDROCORTISONE]										
